Values quoted from earlier work in patent US8183241B2, “2-oxo-1-pyrrolidine derivatives” (UCB Pharma, S.A., priority 2005, dated 2012).

Conditions: Eur. J. Pharmacol. (1992), 222, 193-203

CC[C@@H](C(N)=O)N1CCCC1=O [Levetiracetam, (S)-α-ethyl-2-oxo-1-pyrrolidine acetamide]
activity in the treatment of epilepsy: effective in the treatment of epilepsy

CC[C@H](C(N)=O)N1CCCC1=O [(R)-α-ethyl-2-oxo-1-pyrrolidine acetamide]
activity in the treatment of epilepsy: completely lacks activity
